Assay results taken from PubChem BioAssay AID248 (DTP/NCI, 2004).
Values joined by “and” are separate entries in the source; they are usually repeats but may differ in a detail not shown here. Identical values can stand only once. Inconclusive results and toxic doses are left out. No stated cut-off is given here; in the data, active means T/C of 150% or more; inactive means T/C below 125%. Numbered stars: 1 amine (or outer) side, 2 acyl side, 3 side chain; on linkers, the order of the positions; unused ones are H or OH. Bridge positions count the residues as written; N and C are the ends. Square brackets hold non-standard residues; d marks the D form. Peptide text beside a SMILES is read from it. I, II: the chains in the order shown. Actinocin(1to9) = Cc1c2oc3c(C)ccc(C(=O)[*:2])c3nc-2c(C(=O)[*:1])c(N)c1=O; X5 = O=C1CC(C(=O)[*:2])N([*:1])C1; NMeV = CN[CH](C(=O)O)C(C)C; Sar = CNCC(=O)O

Test system: L1210 leukemia ip in BDF1 mice, survival T/C
Assay: NCI In Vivo Anticancer Drug Screen. Data for tumor model L1210 Leukemia (intraperitoneal) in B6D2F1 (BDF1) mice
Conditions: higher = longer survival
Summary of the method: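 Transplanted-tumor mice were given test agent; controls received vehicle only. Survival readings from the two groups were divided (treated over control).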

[1] = endpoint: mean survival time, dose: 100.0 mg/kg/injection, schedule: Q01DX001 (ip), vehicle: saline
[2] = endpoint: mean survival time, dose: 200.0 mg/kg/injection, schedule: Q01DX001 (ip), vehicle: saline

Measured: T/C

NC(CSS(=O)(=O)O)=NCCCc1c[nH]c2ccccc12
inactive: endpoint: mean survival time, dose: 12.5 mg/kg/injection, schedule: Q04DX002 (ip), vehicle: Klucel (hydroxypropylcellulose) (HPC) 100 % of control | endpoint: mean survival time, dose: 25.0 mg/kg/injection, schedule: Q04DX002 (ip), vehicle: Klucel (hydroxypropylcellulose) (HPC) 107 % of control | endpoint: mean survival time, dose: 50.0 mg/kg/injection, schedule: Q04DX002 (ip), vehicle: Klucel (hydroxypropylcellulose) (HPC) 107 % of control

O=[N+]([O-])c1ccc(C=Nc2ccc(Cc3ccncc3)cc2)cc1
inactive: endpoint: mean survival time, dose: 100.0 mg/kg/injection, schedule: Q01DX009 (ip), vehicle: carboxymethylcellulose (CMC) 93 % of control and 100 % of control | endpoint: mean survival time, dose: 100.0 mg/kg/injection, schedule: Q04DX002 (ip), vehicle: carboxymethylcellulose (CMC) 104 % of control | endpoint: mean survival time, dose: 100.0 mg/kg/injection, schedule: Q04DX003 (ip), vehicle: carboxymethylcellulose (CMC) 101 % of control | endpoint: mean survival time, dose: 200.0 mg/kg/injection, schedule: Q01DX009 (ip), vehicle: carboxymethylcellulose (CMC) 97 % of control and 98 % of control | endpoint: mean survival time, dose: 200.0 mg/kg/injection, schedule: Q04DX002 (ip), vehicle: carboxymethylcellulose (CMC) 98 % of control | endpoint: mean survival time, dose: 200.0 mg/kg/injection, schedule: Q04DX003 (ip), vehicle: carboxymethylcellulose (CMC) 94 % of control | endpoint: mean survival time, dose: 400.0 mg/kg/injection, schedule: Q01DX009 (ip), vehicle: carboxymethylcellulose (CMC) 95 % of control and 91 % of control | endpoint: mean survival time, dose: 400.0 mg/kg/injection, schedule: Q04DX002 (ip), vehicle: carboxymethylcellulose (CMC) 93 % of control | endpoint: mean survival time, dose: 400.0 mg/kg/injection, schedule: Q04DX003 (ip), vehicle: carboxymethylcellulose (CMC) 100 % of control

OCn1nc(Cl)c2cc(Cl)ccc21
inactive: endpoint: mean survival time, dose: 100.0 mg/kg/injection, schedule: Q01DX001 (ip), vehicle: carboxymethylcellulose (CMC) 103 % of control | endpoint: mean survival time, dose: 200.0 mg/kg/injection, schedule: Q01DX001 (ip), vehicle: carboxymethylcellulose (CMC) 98 % of control | endpoint: mean survival time, dose: 400.0 mg/kg/injection, schedule: Q01DX001 (ip), vehicle: carboxymethylcellulose (CMC) 100 % of control

CCCCCCCCCCCCCCCC(=O)ONC(N)=O
inactive: endpoint: mean survival time, dose: 100.0 mg/kg/injection, schedule: Q01DX001 (ip), vehicle: saline with Tween-80 100 % of control | endpoint: mean survival time, dose: 200.0 mg/kg/injection, schedule: Q01DX001 (ip), vehicle: saline with Tween-80 96 % of control | endpoint: mean survival time, dose: 400.0 mg/kg/injection, schedule: Q01DX001 (ip), vehicle: saline with Tween-80 91 % of control

COc1ccc(OCCS(=O)(=O)C(CCOS(C)(=O)=O)COS(C)(=O)=O)cc1 (stereo unspecified)
inactive: endpoint: mean survival time, dose: 100.0 mg/kg/injection, schedule: Q01DX009 (ip), vehicle: Klucel (hydroxypropylcellulose) (HPC) 96 % of control | endpoint: mean survival time, dose: 200.0 mg/kg/injection, schedule: Q01DX009 (ip), vehicle: Klucel (hydroxypropylcellulose) (HPC) 93 % of control | endpoint: mean survival time, dose: 400.0 mg/kg/injection, schedule: Q01DX009 (ip), vehicle: Klucel (hydroxypropylcellulose) (HPC) 98 % of control

CCOC(=O)CCCc1c(C)[nH]c2ccc(Cl)cc12
inactive: endpoint: mean survival time, dose: 100.0 mg/kg/injection, schedule: Q04DX002 (ip), vehicle: Klucel (hydroxypropylcellulose) (HPC) 98 % of control | endpoint: mean survival time, dose: 200.0 mg/kg/injection, schedule: Q04DX002 (ip), vehicle: Klucel (hydroxypropylcellulose) (HPC) 102 % of control | endpoint: mean survival time, dose: 400.0 mg/kg/injection, schedule: Q04DX002 (ip), vehicle: Klucel (hydroxypropylcellulose) (HPC) 91 % of control

NC=O
inactive: endpoint: mean survival time, dose: 62.5 mg/kg/injection, schedule: Q01DX009 (ip), vehicle: saline 112 % of control | endpoint: mean survival time, dose: 62.5 mg/kg/injection, schedule: Q01DX015 (ip), vehicle: saline 95 % of control | [1] 94 % of control and 109 % of control | endpoint: mean survival time, dose: 125.0 mg/kg/injection, schedule: Q01DX009 (ip), vehicle: saline 107 % of control | endpoint: mean survival time, dose: 125.0 mg/kg/injection, schedule: Q01DX015 (ip), vehicle: saline 101 % of control | [2] 101 % of control and 92 % of control | endpoint: mean survival time, dose: 250.0 mg/kg/injection, schedule: Q01DX009 (ip), vehicle: saline 118 % of control | endpoint: mean survival time, dose: 250.0 mg/kg/injection, schedule: Q01DX015 (ip), vehicle: saline 110 % of control | endpoint: mean survival time, dose: 400.0 mg/kg/injection, schedule: Q01DX001 (ip), vehicle: saline 100 % of control and 101 % of control | endpoint: mean survival time, dose: 500.0 mg/kg/injection, schedule: Q01DX015 (ip), vehicle: saline 92 % of control | endpoint: mean survival time, dose: 800.0 mg/kg/injection, schedule: Q01DX001 (ip), vehicle: saline 106 % of control

Cc1cc(C)c(C)c(OC(=O)Nc2ccc(Cl)cc2C(F)(F)F)c1
inactive: endpoint: mean survival time, dose: 50.0 mg/kg/injection, schedule: Q01DX009 (ip), vehicle: saline with Tween-80 92 % of control | endpoint: mean survival time, dose: 100.0 mg/kg/injection, schedule: Q01DX009 (ip), vehicle: saline with Tween-80 103 % of control | endpoint: mean survival time, dose: 200.0 mg/kg/injection, schedule: Q01DX009 (ip), vehicle: saline with Tween-80 106 % of control

N/C(N=Nc1ccccc1)=N\[N+](=O)[O-]
inactive: endpoint: mean survival time, dose: 100.0 mg/kg/injection, schedule: Q04DX003 (ip), vehicle: Klucel (hydroxypropylcellulose) (HPC) 100 % of control | endpoint: mean survival time, dose: 200.0 mg/kg/injection, schedule: Q04DX003 (ip), vehicle: Klucel (hydroxypropylcellulose) (HPC) 105 % of control | endpoint: mean survival time, dose: 400.0 mg/kg/injection, schedule: Q04DX003 (ip), vehicle: Klucel (hydroxypropylcellulose) (HPC) 86 % of control

O=[N+]([O-])c1ccc(Oc2ccccc2[N+](=O)[O-])cc1
inactive: endpoint: mean survival time, dose: 222.0 mg/kg/injection, schedule: Q01DX Z (ip), vehicle: methylcellulose (MC) 95 % of control | endpoint: mean survival time, dose: 333.0 mg/kg/injection, schedule: Q01DX Z (ip), vehicle: methylcellulose (MC) 95 % of control | endpoint: mean survival time, dose: 500.0 mg/kg/injection, schedule: Q01DX Z (ip), vehicle: methylcellulose (MC) 86 % of control

CCN(CC)c1cccc(OC(=O)NC)c1
inactive: endpoint: mean survival time, dose: 0.75 mg/kg/injection, schedule: Q01DX009 (ip), vehicle: saline with Tween-80 91 % of control | endpoint: mean survival time, dose: 1.5 mg/kg/injection, schedule: Q01DX009 (ip), vehicle: saline with Tween-80 94 % of control | endpoint: mean survival time, dose: 3.0 mg/kg/injection, schedule: Q01DX009 (ip), vehicle: saline with Tween-80 94 % of control

NC(N)=NC(N)=NCCCc1ccccc1
inactive: endpoint: mean survival time, dose: 12.5 mg/kg/injection, schedule: Q01DX001 (ip), vehicle: other 107 % of control | endpoint: mean survival time, dose: 12.5 mg/kg/injection, schedule: Q04DX003 (ip), vehicle: other 97 % of control | endpoint: mean survival time, dose: 25.0 mg/kg/injection, schedule: Q01DX001 (ip), vehicle: other 96 % of control | endpoint: mean survival time, dose: 25.0 mg/kg/injection, schedule: Q04DX003 (ip), vehicle: other 94 % of control | endpoint: mean survival time, dose: 50.0 mg/kg/injection, schedule: Q01DX001 (ip), vehicle: other 102 % of control | endpoint: mean survival time, dose: 50.0 mg/kg/injection, schedule: Q04DX003 (ip), vehicle: other 97 % of control | [1] 96 % of control | [2] 96 % of control

Cc1c2oc3c(C)ccc(C(=O)NC4C(=O)NC(C(C)C)C(=O)N5CCCC5C(=O)N(C)CC(=O)N(C)C(C(C)C)C(=O)OC4C)c3nc-2c(C(=O)NC2C(=O)NC(C(C)C)C(=O)N3CC(=O)CC3C(=O)N(C)CC(=O)N(C)C(C(C)C)C(=O)OC2C)c(N)c1=O (stereo unspecified) (I: TV[X5][Sar][NMeV] / II: TVP[Sar][NMeV]; ester I:1-I:C, II:1-II:C; linker I:N-II:N via Actinocin(1to9); configuration not given here)
inactive: endpoint: median survival time, dose: 3.1 micrograms/kg/injection, schedule: Q01DX009 (ip), vehicle: water 108 % of control | endpoint: median survival time, dose: 6.2 micrograms/kg/injection, schedule: Q01DX009 (ip), vehicle: water 120 % of control | endpoint: median survival time, dose: 12.5 micrograms/kg/injection, schedule: Q01DX009 (ip), vehicle: water 116 % of control | endpoint: median survival time, dose: 18.7 micrograms/kg/injection, schedule: Q04DX003 (ip), vehicle: water 108 % of control | endpoint: median survival time, dose: 25.0 micrograms/kg/injection, schedule: Q01DX009 (ip), vehicle: water 108 % of control | endpoint: median survival time, dose: 37.5 micrograms/kg/injection, schedule: Q04DX003 (ip), vehicle: water 113 % of control
